Test results reported in patent US20230278972A1, “SUBSTITUTED HALOALKYL SULFONANILIDE HERBICIDES” (FMC Corporation, priority 2020, published 2023).

Tests used:
Format in all cases: in vivo
[1] = tested on: barnyardgrass (Echinochloa crus-galli); assay: Test A preemergence, barnyardgrass; conditions: Preemergence; for Plant response rating, Barnyardgrass: 0 to 100 scale (0 no effect, 100 complete control); for Barnyardgrass plant response rating: 125 g ai/ha, visual injury on 0 to 100 scale (0 no effect, 100 complete control), approximately 10 days
How it was run: (§1)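 Pots: loam soil/sand blend. Pre: directed soil spray at planting. Post: plants 2–10 cm, 1–2 leaf stage. Formulation: non-phytotoxic solvent + surfactant.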

kochia (Bassia scoparia) [2] = assay: Test A preemergence, kochia; conditions: Preemergence; for Plant response rating, Kochia: 0 to 100 scale (0 no effect, 100 complete control); for Kochia plant response rating: 125 g ai/ha, visual injury on 0 to 100 scale (0 no effect, 100 complete control), approximately 10 days
How it was run: as §1

[3] = tested on: ragweed (common ragweed, Ambrosia artemisiifolia); assay: Test A preemergence, ragweed; conditions: Preemergence; for Plant response rating, Ragweed: 0 to 100 scale (0 no effect, 100 complete control); for Ragweed plant response rating: 125 g ai/ha, visual injury on 0 to 100 scale (0 no effect, 100 complete control), approximately 10 days
How it was run: as §1

[4] = tested on: Ryegrass, Italian (Italian ryegrass, Lolium multiflorum); assay: Test A preemergence, Ryegrass, Italian; conditions: Preemergence; for Plant response rating, Ryegrass, Italian: 0 to 100 scale (0 no effect, 100 complete control); for Ryegrass, Italian plant response rating: 125 g ai/ha, visual injury on 0 to 100 scale (0 no effect, 100 complete control), approximately 10 days
How it was run: as §1

[5] = tested on: Foxtail, Giant (giant foxtail, Setaria faberi); assay: Test A preemergence, Foxtail, Giant; conditions: Preemergence; for Foxtail, Giant plant response rating: 125 g ai/ha, visual injury on 0 to 100 scale (0 no effect, 100 complete control), approximately 10 days; for Plant response rating, Foxtail, Giant: 0 to 100 scale (0 no effect, 100 complete control)
How it was run: as §1

[6] = tested on: pigweed (Amaranthus retroflexus); assay: Test A preemergence, pigweed; conditions: for Plant response rating, Pigweed: 0 to 100 scale (0 no effect, 100 complete control); for Pigweed plant response rating: 125 g ai/ha, visual injury on 0 to 100 scale (0 no effect, 100 complete control), approximately 10 days
How it was run: (§2)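 Greenhouse pot test in a loam–sand blend; compounds delivered in a non-phytotoxic solvent carrying a surfactant, applied either as a directed spray to soil at seeding or over seedlings 2 to 10 cm high with one to two leaves.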

[7] = tested on: barnyardgrass (Echinochloa crus-galli); assay: Test A postemergence, barnyardgrass; conditions: Postemergence, 0 to 100 scale (0 no effect, 100 complete control)
How it was run: as §2

kochia (Bassia scoparia) [8] = assay: Test A postemergence, kochia; conditions: Postemergence
How it was run: as §1

[9] = tested on: ragweed (common ragweed, Ambrosia artemisiifolia); assay: Test A postemergence, ragweed; conditions: Postemergence
How it was run: as §1

[10] = tested on: Ryegrass, Italian (Italian ryegrass, Lolium multiflorum); assay: Test A postemergence, Ryegrass, Italian; conditions: Postemergence
How it was run: as §1

[11] = tested on: Foxtail, Giant (giant foxtail, Setaria faberi); assay: Test A postemergence, Foxtail, Giant; conditions: Postemergence
How it was run: as §1

[12] = tested on: pigweed (Amaranthus retroflexus); assay: Test A postemergence, pigweed; conditions: Postemergence
How it was run: as §1

[13] = tested on: wheat (Triticum aestivum); assay: Test A postemergence, wheat; conditions: Postemergence
How it was run: as §2

corn (Zea mays) = assay: Test A postemergence, corn; conditions: Postemergence
How it was run: as §1

[14] = tested on: blackgrass (Alopecurus myosuroides); assay: Test A postemergence, blackgrass; conditions: Postemergence, 0 to 100 scale (0 no effect, 100 complete control)
How it was run: as §1

[15] = tested on: galium (catchweed bedstraw, Galium aparine); assay: Test A postemergence, galium; conditions: Postemergence
How it was run: as §2

[16] = 31 g ai/ha, visual injury, approx. 10 days
[17] = 125 g ai/ha, visual injury approx. 10 days
[18] = 31 g ai/ha, visual injury on 0 to 100 scale (0 no effect, 100 complete control), approx. 10 days
[19] = 125 g ai/ha, visual injury approx. 10 days, 0 to 100 scale (0 no effect, 100 complete control)
[20] = 500 g ai/ha, visual injury vs untreated controls after approx. 10 days
[21] = 125 g ai/ha, 0 to 100 scale (0 no effect, 100 complete control)
[22] = 500 g ai/ha, visual injury vs untreated controls after approx. 10 days, 0 to 100 scale (0 no effect, 100 complete control)
[23] = 1000 g ai/ha, visual injury, approx. 10 days
[24] = 1000 g ai/ha, visual injury, 0 to 100 scale (0 no effect, 100 complete control), approx. 10 days

## Cc1cc(C)c(C(=O)N2COC(C)(C)C2)cc1NS(=O)(=O)C(F)(F)F [Compound 112]
[1]; [16]
  Plant response rating, Barnyardgrass: 20
[1]
  Barnyardgrass plant response rating: 30
Kochia (Bassia scoparia) [2]; [16]
  Plant response rating, Kochia: 10
Kochia (Bassia scoparia) [2]
  Kochia plant response rating: 60
[3]; [16]
  Plant response rating, Ragweed: 30
[3]
  Ragweed plant response rating: 90
[4]; [16]
  Plant response rating, Ryegrass, Italian: 0
[4]
  Ryegrass, Italian plant response rating: 30
[5]
  Foxtail, Giant plant response rating: 50
[6]; [16]
  Plant response rating, Pigweed: 50
[6]
  Pigweed plant response rating: 100
[7]; 31 g ai/ha
  Plant response rating, Barnyardgrass: 40
[7]; [17]
  Plant response rating, Barnyardgrass: 70
Kochia (Bassia scoparia) [8]; [18]
  Plant response rating, Kochia: 20
Kochia (Bassia scoparia) [8]; [19]
  Plant response rating, Kochia: 30
[9]; [18]
  Plant response rating, Ragweed: 80
[9]; [19]
  Plant response rating, Ragweed: 90
[10]; [18]
  Plant response rating, Ryegrass, Italian: 0
[10]; [19]
  Plant response rating, Ryegrass, Italian: 60
[11]; [18]
  Plant response rating, Foxtail, Giant: 10
[11]; [19]
  Plant response rating, Foxtail, Giant: 50
[12]; [18]
  Plant response rating, Pigweed: 50
[12]; [19]
  Plant response rating, Pigweed: 60
[13]; [18]
  Plant response rating, Wheat: 0
[13]; [19]
  Plant response rating, Wheat: 40
Corn (Zea mays); [18]
  Plant response rating, Corn: 0
Corn (Zea mays); [19]
  Plant response rating, Corn: 20
[14]; 31 g ai/ha
  Plant response rating, Blackgrass: 0
[14]; [17]
  Plant response rating, Blackgrass: 30
[15]; [18]
  Plant response rating, Galium: 90
[15]; [19]
  Plant response rating, Galium: 90

## Cc1cc(Cl)c(C2=NOC3(CCCC3)C2)cc1N(S(=O)(=O)C(F)(F)F)S(=O)(=O)C(F)(F)F [Compound 186]
[1]
  Barnyardgrass plant response rating: 60
[1]; 500 g ai/ha
  Plant response rating, Barnyardgrass: 100
Kochia (Bassia scoparia) [2]
  Kochia plant response rating: 20
Kochia (Bassia scoparia) [2]; 500 g ai/ha
  Plant response rating, Kochia: 70
[3]
  Ragweed plant response rating: 20
[3]; 500 g ai/ha
  Plant response rating, Ragweed: 50
[4]
  Ryegrass, Italian plant response rating: 60
[4]; 500 g ai/ha
  Plant response rating, Ryegrass, Italian: 100
[5]
  Foxtail, Giant plant response rating: 60
[5]; 500 g ai/ha
  Plant response rating, Foxtail, Giant: 100
[6]
  Pigweed plant response rating: 20
[6]; 500 g ai/ha
  Plant response rating, Pigweed: 80
[7]; 125 g ai/ha
  Plant response rating, Barnyardgrass: 10
[7]; [20]
  Barnyardgrass plant response rating: 20
Kochia (Bassia scoparia) [8]; [21]
  Plant response rating, Kochia: 10
Kochia (Bassia scoparia) [8]; [22]
  Kochia plant response rating: 40
[9]; [21]
  Plant response rating, Ragweed: 40
[9]; [22]
  Ragweed plant response rating: 60
[10]; [21]
  Plant response rating, Ryegrass, Italian: 0
[10]; [22]
  Ryegrass, Italian plant response rating: 20
[11]; [21]
  Plant response rating, Foxtail, Giant: 0
[11]; [22]
  Foxtail, Giant plant response rating: 20
[12]; [21]
  Plant response rating, Pigweed: 0
[12]; [22]
  Pigweed plant response rating: 50
[13]; [21]
  Plant response rating, Wheat: 0
[13]; [22]
  Wheat plant response rating: 30
Corn (Zea mays); [21]
  Plant response rating, Corn: 0
Corn (Zea mays); [22]
  Corn plant response rating: 30
[14]; 125 g ai/ha
  Plant response rating, Blackgrass: 0
[14]; [20]
  Blackgrass plant response rating: 20
[15]; [21]
  Plant response rating, Galium: 60
[15]; [22]
  Galium plant response rating: 80

## Cc1ccc(C(=O)N2CCC(C(C)(C)C)CC2)cc1NS(=O)(=O)C(F)(F)F [Compound 262]
[1]; 1000 g ai/ha
  Plant response rating, Barnyardgrass: 20
Kochia (Bassia scoparia) [2]; 1000 g ai/ha
  Plant response rating, Kochia: 0
[3]; 1000 g ai/ha
  Plant response rating, Ragweed: 0
[4]; 1000 g ai/ha
  Plant response rating, Ryegrass, Italian: 20
[5]; 1000 g ai/ha
  Plant response rating, Foxtail, Giant: 70
[6]; 1000 g ai/ha
  Plant response rating, Pigweed: 0
[7]; [23]
  Plant response rating, Barnyardgrass: 0
Kochia (Bassia scoparia) [8]; [24]
  Plant response rating, Kochia: 0
[9]; [24]
  Plant response rating, Ragweed: 0
[10]; [24]
  Plant response rating, Ryegrass, Italian: 20
[11]; [24]
  Plant response rating, Foxtail, Giant: 0
[12]; [24]
  Plant response rating, Pigweed: 20
[13]; [24]
  Plant response rating, Wheat: 0
Corn (Zea mays); [24]
  Plant response rating, Corn: 0
[14]; [23]
  Plant response rating, Blackgrass: 20
[15]; [24]
  Plant response rating, Galium: 40

## Cc1cc(C)c(C(=O)N2CCC(C#N)CC2)cc1NS(=O)(=O)C(F)(F)F [Compound 11]
[1]; 1000 g ai/ha
  Plant response rating, Barnyardgrass: 100
Kochia (Bassia scoparia) [2]; 1000 g ai/ha
  Plant response rating, Kochia: 90
[3]; 1000 g ai/ha
  Plant response rating, Ragweed: 80
[4]; 1000 g ai/ha
  Plant response rating, Ryegrass, Italian: 0
[5]; 1000 g ai/ha
  Plant response rating, Foxtail, Giant: 100
[6]; 1000 g ai/ha
  Plant response rating, Pigweed: 100
[7]; [23]
  Plant response rating, Barnyardgrass: 90
Kochia (Bassia scoparia) [8]; [24]
  Plant response rating, Kochia: 60
[9]; [24]
  Plant response rating, Ragweed: 80
[10]; [24]
  Plant response rating, Ryegrass, Italian: 70
[11]; [24]
  Plant response rating, Foxtail, Giant: 90
[12]; [24]
  Plant response rating, Pigweed: 100
[13]; [24]
  Plant response rating, Wheat: 80
Corn (Zea mays); [24]
  Plant response rating, Corn: 60
[14]; [23]
  Plant response rating, Blackgrass: 50
[15]; [24]
  Plant response rating, Galium: 90
